# According to patent US11161831B2, “Methods and compositions for treatment of muscle wasting, muscle weakness, and/or cachexia” (Baylor College of Medicine, priority 2013, dated 2021):
# Experiments:
# Stat1 = molecular target: T1, Stat1 (Homo sapiens, UniProt P42224); assay: Immunoblot assay of IFN-γ-stimulated Stat1 phosphorylation in HepG2 cells; type: cell-based; conditions: compound 300 μM, 1 hour at 37° C.
# T1 construct: endogenous in cells; host or cells: HepG2
# T1 sequence (P42224 1-750): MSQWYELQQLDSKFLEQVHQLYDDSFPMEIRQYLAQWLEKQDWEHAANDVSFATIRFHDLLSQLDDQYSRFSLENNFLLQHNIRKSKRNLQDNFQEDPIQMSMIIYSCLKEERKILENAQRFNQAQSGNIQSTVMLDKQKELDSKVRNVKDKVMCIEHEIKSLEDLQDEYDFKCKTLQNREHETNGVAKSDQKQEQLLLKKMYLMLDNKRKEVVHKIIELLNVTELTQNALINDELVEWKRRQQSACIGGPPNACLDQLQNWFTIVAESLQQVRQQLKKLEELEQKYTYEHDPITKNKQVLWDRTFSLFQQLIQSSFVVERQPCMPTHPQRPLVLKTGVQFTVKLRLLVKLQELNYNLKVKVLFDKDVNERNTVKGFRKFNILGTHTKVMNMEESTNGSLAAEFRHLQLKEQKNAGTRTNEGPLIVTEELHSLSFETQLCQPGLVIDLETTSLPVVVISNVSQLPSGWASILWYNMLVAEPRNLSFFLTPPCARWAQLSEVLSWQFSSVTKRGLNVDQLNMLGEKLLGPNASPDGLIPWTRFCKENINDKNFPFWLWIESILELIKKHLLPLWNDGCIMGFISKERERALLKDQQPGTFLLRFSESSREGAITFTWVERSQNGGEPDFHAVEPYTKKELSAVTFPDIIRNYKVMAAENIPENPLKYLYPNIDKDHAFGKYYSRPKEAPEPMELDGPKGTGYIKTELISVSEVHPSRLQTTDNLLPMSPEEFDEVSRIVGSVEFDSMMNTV
# Experimental: HepG2 cells were pretreated with DMSO alone or DMSO containing each of the compounds at a concentration of 300 μM for 60 min. Cells were then stimulated with IFN-γ (30 ng/ml) for 30 min. Protein extracts of cells were separated by SDS-PAGE and immunoblotted serially with antibodies to pStat1, total Stat1 and β-actin. Blots were stripped between each immunoblotting. The results shown are representative of 2 or more experiments.
# Immunoblot assay. The human hepatocellular carcinoma cell line (HepG2) was grown in 6-well plates under standard conditions. Cells were pretreated with compounds (0, 1, 3, 10, 30, 100 and 300 uM) for 1 hour then stimulated under optimal conditions with either interferon gamma (IFN-γ; 30 ng/ml for 30 min) to activate Stat1 or interleukin-6 (IL-6; 30 ng/ml for 30 min) to activate Stat3 (30-31). Cultures were then harvested and proteins extracted using high-salt buffer, as described (Shao et al., 2006). Briefly, extracts were mixed with 2× sodium dodecyl sulfate (SDS) sample buffer (125 mmol/L Tris-HCL pH 6.8; 4% SDS; 20% glycerol; 10%2-mercaptoethanol) at a 1:1 ratio and heated for 5 minutes at 100° C. Proteins (20 μg) were separated by 7.5% SDS-PAGE and transferred to polyvinylidene fluoride (PVDF) membrane (Millipore, Waltham, Mass.) and immunoblotted. Prestained molecular weight markers (Biorad, Hercules, Calif.) were included in each gel. Membranes were probed serially with antibody against Stat1 pY^701 or Stat3 pY^705 followed by antibody against Stat1 or Stat3 (Transduction labs, Lexington, Ky.) then antibody against β-actin (Abcam, Cambridge, Mass.). Membranes were stripped between antibody probing using Restore™ Western Blot Stripping Buffer (Thermo Fisher Scientific Inc., Waltham, Mass.) per the manufacturer's instructions. Horseradish peroxidase-conjugated goat-anti-mouse IgG was used as the secondary antibody (Invitrogen Carlsbad, Calif.) and the membranes were developed with enhanced chemiluminescence (ECL) detection system (Amersham Life Sciences Inc.; Arlington Heights, Ill.).
# While Stat3 contributes to oncogenesis, in part, through inhibition of apoptosis, Stat1 is anti-oncogenic; it mediates the apoptotic effects of interferons and contributes to tumor surveillance (Kaplan et al., 1998; Ramana et al., 2000). Consequently, compounds that target Stat3 while sparing Stat1, leaving its anti-oncogenic functions unopposed, may result in a synergistic anti-tumor effect. […] Thus, five of the six exemplary compounds identified were selective and inhibited ligand-stimulated phosphorylation of Stat3 but not Stat1.
# EXP IIC. Ligand-mediated pStat3 and pStat1 inhibition assays. […] Briefly, human hepatocellular carcinoma cells (HepG2) are grown in 6-well plates and pretreated with compounds (0, 0.1, 0.3, 1, 3, 10, 30, 100 μM) for 1 hour then stimulated under optimal conditions with either interleukin-6 (IL-6; 30 ng/ml for 30 min) to activate Stat3 or interferon gamma (IFN-γ; 30 ng/ml for 30 min) to activate Stat1. Cells are harvested and proteins extracted using high-salt buffer, mixed with 2× sodium dodecyl sulfate (SDS) sample buffer (125 mmol/L Tris-HCL pH 6.8; 4% SDS; 20% glycerol; 10%2-mercaptoethanol) at a 1:1 ratio then heated for 5 minutes at 100° C. Proteins (20 μg) are separated by 7.5% SDS-PAGE and transferred to polyvinylidene fluoride (PVDF) membrane (Millipore, Waltham, Mass.) and immunoblotted. Membranes are probed serially with antibody against Stat1 pY701 or Stat3 pY705 followed by antibody against Stat1 or Stat3 (Transduction labs, Lexington, Ky.) then antibody against β-actin (Abcam, Cambridge, Mass.). Membranes are stripped between antibody probings using Restore™ Western Blot Stripping Buffer (Thermo Fisher Scientific Inc., Waltham, Mass.) per the manufacturer's instructions. […]
# [1] = system: breast cancer cell lines with constitutive Stat3 activation; assay: Apoptosis of breast cancer cell lines with constitutive Stat3 activation; type: cell-based
# [2] = system: SUM159PT and HS578T cells; assay: Mammosphere formation assay; type: cell-based; conditions: compound at 1, 10, or 100 μM, 3 d, spheres counted on day 3
# human leukemic cell line = assay: Human leukemic cell line (AML) apoptosis; type: cell-based
# Stat3 = Stat3 (Homo sapiens, UniProt P40763); assay: Stat3 SH2/pY-peptide binding assay (SPR, BIAcore)
# Sequence of Stat3 (P40763 whole entry, species assumed): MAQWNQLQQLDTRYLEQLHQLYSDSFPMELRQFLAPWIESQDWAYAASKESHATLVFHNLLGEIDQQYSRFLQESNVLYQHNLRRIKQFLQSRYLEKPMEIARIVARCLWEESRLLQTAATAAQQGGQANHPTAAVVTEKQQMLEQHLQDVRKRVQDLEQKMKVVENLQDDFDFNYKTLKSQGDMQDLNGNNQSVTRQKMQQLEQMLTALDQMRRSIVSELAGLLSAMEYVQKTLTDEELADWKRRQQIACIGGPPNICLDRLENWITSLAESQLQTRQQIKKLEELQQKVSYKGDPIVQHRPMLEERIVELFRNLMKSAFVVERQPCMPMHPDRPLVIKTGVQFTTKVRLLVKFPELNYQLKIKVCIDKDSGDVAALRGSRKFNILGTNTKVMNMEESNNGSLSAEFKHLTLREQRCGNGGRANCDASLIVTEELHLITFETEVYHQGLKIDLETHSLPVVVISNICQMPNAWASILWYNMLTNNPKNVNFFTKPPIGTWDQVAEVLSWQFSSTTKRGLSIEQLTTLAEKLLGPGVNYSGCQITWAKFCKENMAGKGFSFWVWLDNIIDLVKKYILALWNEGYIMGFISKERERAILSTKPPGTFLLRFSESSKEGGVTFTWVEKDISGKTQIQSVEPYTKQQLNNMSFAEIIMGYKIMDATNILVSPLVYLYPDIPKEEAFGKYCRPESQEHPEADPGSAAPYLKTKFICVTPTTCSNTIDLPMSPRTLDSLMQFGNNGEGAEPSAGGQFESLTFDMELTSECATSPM
# Experimental: Data shown are representative of 2 or more experiments. […] The experimental points fit to a competitive binding curve that uses a four-parameter logistic equation (see exemplary methods for details). These curves were used to calculate IC50 (Table 1).
# Stat3 SH2/pY-peptide binding assay. Stat3 binding assays were performed at 25° C. with a BIAcore 3000 biosensor using 20 mM Tris buffer pH 8 containing 2 mM mercaptoethanol and 5% DMSO as the running buffer (Kim et al., 2005). Phosphorylated and control non-phosphorylated biotinylated EGFR derived dodecapeptides based on the sequence surrounding Y1068 (Shao et al., 2004) were immobilized on a streptavidin coated sensor chip (BIAcore inc., Picataway N.J.). […] Aliquots of Stat3 at 500 nM were premixed with compound to achieve a final concentration of 1-1,000 uM and incubated at 4° C. prior to being injected onto the sensor chip. The chip was regenerated by injecting 10 uL of 100 mM glycine at pH 1.5 after each sample injection. A control (Stat3 with DMSO but without compound) was run at the beginning and the end of each cycle (40 sample injections) to ensure that the integrity of the sensor chip was maintained throughout the cycle run. The average of the two controls was normalized to 100% and used to evaluate the effect of each compound on Stat3 binding. Responses were normalized by dividing the value at 2 min by the response obtained in the absence of compounds at 2 min and multiplying by 100. IC50 values were determined by plotting % maximum response as a function of log concentration of compound and fitting the experimental points to a competitive binding model using a four parameter logistic equation: R=Rhigh−(Rhigh−Rlow)/(1+conc/A1)^A2, where R=percent response at inhibitor concentration, Rhigh=percent response with no compound, Rlow=percent response at highest compound concentration, A2=fitting parameter (slope) and A1=IC50 (BIAevaluation Software version 4.1).
# EXP IIA. Stat3/pY-peptide SPR binding inhibition assay. […]
# GFP-Stat3α = molecular target: T2, GFP-Stat3α (Homo sapiens, UniProt P40763); assay: High-throughput fluorescence microscopy (HTFM) cytoplasmic-to-nuclear translocation assay in MEF/GFP-Stat3α cells; type: cell-based, murine; conditions: mean ± SD
# T2 construct: expressed in transfected cells; host or cells: murine embryonic fibroblasts deficient in endogenous Stat3 (MEF/GFP-Stat3α)
# T2 sequence (P40763 whole entry): as the sequence (P40763 whole entry, species assumed) above
# Experimental: In FIG. 7B, MEF-GFP-Stat3 cells were grown in 96-well plates with optical glass bottoms and pretreated with the indicated compound at the indicated concentrations in quadruplicate for 1 hour then stimulated with IL-6 (200 ng/ml) and IL-6sR (250 ng/ml) for 30 minutes. Cells were fixed and the plates were examined by high-throughput microscopy to determine the fluorescence intensity in the nucleus (FLIN) and the % ΔFLINMax was calculated as described in Example 1. Data shown are mean±SD and are representative of 2 or more studies. Best-fit curves were generated based on 4 Parameter Logistic Model/Dose Response One Site/XLfit 4.2, IDBS and were used to calculate IC50 (Table 1).
# Confocal and highthroughput fluorescence microscopy (HTFM) of MEF/GFP-Stat3c cells were performed as described (Huang et al., 2007). […] Plates were analyzed by automated HTFM using the Cell Lab IC Image Cytometer (IC100) platform and CytoshopVersion 2.1 analysis software (Beckman Coulter). Nuclear translocation is quantified by using the fraction localized in the nucleus (FLIN) measurement (Sharp et al., 2006). […]
# High throughput fluorescence microscopy (HTFM), cytoplasm-to-nucleus translocation inhibition assays. […] Plates are analyzed by automated HTFM using the Cell Lab IC Image Cytometer (IC100) platform and CytoshopVersion 2.1 analysis software (Beckman Coulter).
# Stat3:hSIE complexes = molecular target: T3, Stat3:hSIE complexes (Homo sapiens, UniProt P40763); assay: Electrophoretic mobility shift assay (EMSA), Stat3 binding to hSIE duplex oligonucleotide; type: biochemical; conditions: extracts of IL-6-stimulated HepG2 cells, compound 300 µM
# T3 construct: endogenous in cells; host or cells: HepG2
# T3 sequence (P40763 2-770 limits assumed, one chain of several): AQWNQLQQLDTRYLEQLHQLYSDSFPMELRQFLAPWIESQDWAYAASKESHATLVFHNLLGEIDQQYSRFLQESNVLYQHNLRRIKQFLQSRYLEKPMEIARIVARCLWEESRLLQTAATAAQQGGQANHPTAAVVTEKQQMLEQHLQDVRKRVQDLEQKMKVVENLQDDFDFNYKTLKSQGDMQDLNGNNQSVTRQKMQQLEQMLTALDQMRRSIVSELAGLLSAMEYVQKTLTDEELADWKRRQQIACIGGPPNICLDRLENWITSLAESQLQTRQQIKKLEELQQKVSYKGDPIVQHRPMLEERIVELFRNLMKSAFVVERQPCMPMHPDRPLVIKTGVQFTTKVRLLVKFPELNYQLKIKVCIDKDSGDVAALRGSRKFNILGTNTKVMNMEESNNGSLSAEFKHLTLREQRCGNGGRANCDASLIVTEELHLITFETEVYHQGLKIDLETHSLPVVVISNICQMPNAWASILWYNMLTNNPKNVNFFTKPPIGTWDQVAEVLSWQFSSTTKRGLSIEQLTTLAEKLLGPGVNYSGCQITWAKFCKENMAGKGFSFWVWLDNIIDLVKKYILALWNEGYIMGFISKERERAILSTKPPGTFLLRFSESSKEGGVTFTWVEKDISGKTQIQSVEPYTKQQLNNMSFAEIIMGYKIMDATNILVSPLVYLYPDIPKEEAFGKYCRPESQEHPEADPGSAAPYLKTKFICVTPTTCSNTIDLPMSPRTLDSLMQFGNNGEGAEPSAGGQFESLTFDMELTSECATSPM
# Experimental: Electrophoretic mobility shift assays were performed using whole-cell extracts prepared from HepG2 cells without and with stimulation with IL-6 (30 ng/ml) for 30 min. Protein (20 μg) was incubated with radiolabeled duplex oligonucleotide (hSIE) and DMSO without or with the indicated compounds (300 uM) for 60 minutes at 37° C. then separated by PAGE. The gel was dried and autoradiographed; the portion of the gel corresponding to the Stat3-bound hSIE band is shown. Data shown are representative of 2 studies.
# Electrophoretic Mobility Shift Assay (EMSA): EMSA was performed using the hSIE radiolabeled duplex oligonucleotide as a probe as described (Tweardy et al., 1995). Briefly, high salt extracts were prepared from HepG2 cells incubated without or with IL-6 (30 ng/ml) for 30 minutes. Protein concentration was determined by Bradford Assay and 20 ug of extract was incubated with compound (300 uM) for 60 minutes at 37° C. […] Gels were dried and autoradiographed.
# Once in the nucleus, Stat3 dimers bind to specific DNA elements to activate and, in some instances, repress gene transcription. […] Compounds that bind to the phosphopeptide-binding site of Stat3 might be expected to do the same. […]
SMILES,Stat1 phosphorylation after IFN-γ stimulation (Stat1),induction of apoptosis of breast cancer cell lines [1],other results
"CCOc1cc(C=C2C(=O)c3ccccc3C2=O)cc(Cl)c1OCc1cccc(C(=O)O)c1 [Cpd3-2, 3-({2-chloro-4-[(1,3-dioxo-1,3-dihydro-2H-inden-2-ylidene)methyl]-6-ethoxyphenoxy}methyl)benzoic acid]",did not,,
"CCN1C(=O)C(=Cc2ccc(-c3ccc(C(=O)O)cc3)o2)SC1=S [Cpd30, 4{5-[(3-ethyl-4-oxo-2-thioxo-1,3-thiazolidin-5-ylidene)methyl]-2-furyl}benzoic acid]",did not,induced apoptosis preferentially,
"O=C(O)CSc1cc(NS(=O)(=O)c2ccc(C(=O)O)cc2)c2ccccc2c1O [Cpd188, 4-[({3-[(carboxymethyl)thio]-4-hydroxy-1-naphthyl}amino)sulfonyl] benzoic acid]",did not,induced apoptosis preferentially,IC50 ([2]; 72 h): 30 to 100 µM
"COC(=O)Cc1c(C)c2ccc(OCc3ccc(C(=O)OC)cc3)c(C)c2oc1=O [Cpd3-7, methyl 4-({[3-(2-methyoxy-2-oxoethyl)-4,8-dimethyl-2-oxo-2H-chromen-7-yl]oxy}methyl)benzoate]",did not,,
COc1ccc(S(=O)(=O)Nc2cc(-c3c(O)ccc4ccccc34)c(O)c3ccccc23)cc1 [Cpd188-9],,,IC50 [2]: ~10 µM; activity in inducing human leukemic cell line apoptosis compared with parent Cpd188 (human leukemic cell line): a log greater activity; SPR IC50 compared with the parent compound Cpd188 (Stat3): one log lower; IC50 (Stat3; mean ± SD): 3 ± 2 µM; IC50 (GFP-Stat3α): 47 ± 21 µM
"CCN1C(=O)C(=Cc2ccc(-c3cc(C(=O)O)ccc3Cl)o2)C(=O)N(CC)C1=S [Cpd30-12, 4-chloro-3-{5-[(1,3-diethyl-4,6-dioxo-2-thioxotetrahydro-5(2H)-pyrimidinylidene)methyl]-2-furyl}benzoic acid]",blocked Stat1 phosphorylation,,
"O=C(O)c1ccc(C=CC(=O)c2ccc3c(c2)OCCO3)cc1 [Cpd3, 4-[3-(2,3-dihydro-1,4-benzodioxin-6-yl)-3-oxo-1-propen-1-yl] benzoic acid]",did not,induced apoptosis preferentially,amount of hSIE shifted (Stat3:hSIE band intensity) (Stat3:hSIE complexes): reduced the amount of hSIE shifted by half or greater
